# Results published in patent publication US7202085B2, “Control of gene expression in eukaryotic cells” (Calgene LLC, priority 1999, dated 2007).
# Several values for one entry are separate records, joined by “and”; a condition that tells them apart may be missing. Equal entries are not always repeated.
# Test system: VP16-TraR
# Test: Transient GUS reporter assay in carrot protoplasts with VP16-TraR effector and tra box reporter
# Type: cell-based, Agrobacterium tumefaciens
# Conditions: Table 8: TraA8(4X) +TraR
# Source text: Carrot protoplasts were transfected with the TraA8 (4×)-GUS reporter construct with the 35S-VP16-TraR activator gene and tested for GUS induction by application of wild type AHL and the various AHL analogs described in Example 8.
compound,measurement,setting,value
"CCCCCCC(C(C)=O)C(=O)N[C@@H](CCO)C(=O)O (stereo partly drawn) [compound 26, N-(α-Hexyl-b-ketobutanoyl)-(S)-homoserine]","1, 2, 3 (replicate GUS activities at the lower concentration)",5 μM,382.0 and 407.6 and 373.1
same,"4, 5, 6 (replicate GUS activities at the higher concentration)",12.5 μM,2145.8 and 1764.6 and 1527.0
same,"1, 2, 3 (replicate GUS activities at the lower concentration)",25 μM,1658.7 and 1300.7 and 1586.6
same,"4, 5, 6 (replicate GUS activities at the higher concentration)",75 μM,2585.3 and 3238.5 and 2815.8
